Measured values reported in patent US10906910B2, “Substituted bicyclic pyrimidine compounds with tubulin and multiple receptor inhibition” (Duquesne University of the Holy Spirit, priority 2014, dated 2021).

Legend:
Format in all cases: cell-based
PDGFRβ = PDGFRβ (Homo sapiens, UniProt P09619); experiment: PDGFRβ kinase inhibition, whole-cell assay; conditions: whole-cell assay; read-out: kinase inhibition IC50 [whole-cell assays] PDGFRβ
EGFR = EGFR (Homo sapiens, UniProt P00533); experiment: EGFR kinase inhibition, whole-cell assay; conditions: read-out: kinase inhibition IC50 [whole-cell assays] EGFR
wild type HeLa cells = experiment: HeLa cytotoxicity, wild type; conditions: Homo sapiens
[1] = test system: NCI 60 tumor cell line panel; experiment: NCI 60 tumor cell line panel, overall
CCRF-CEM = experiment: NCI 60 panel, Leukemia CCRF-CEM; conditions: Homo sapiens, read-out: Tumor cell inhibitory activity (NCI) GI50
HL-60(TB) = experiment: NCI 60 panel, Leukemia HL-60(TB); conditions: Homo sapiens, read-out: Tumor cell inhibitory activity (NCI) GI50
K-562 = experiment: NCI 60 panel, Leukemia K-562; conditions: Homo sapiens, K562, read-out: Tumor cell inhibitory activity (NCI) GI50
MOLT-4 = experiment: NCI 60 panel, Leukemia MOLT-4; conditions: Homo sapiens, read-out: Tumor cell inhibitory activity (NCI) GI50
RPMI-8226 = experiment: NCI 60 panel, Leukemia RPMI-8226; conditions: Homo sapiens, read-out: Tumor cell inhibitory activity (NCI) GI50
SR = experiment: NCI 60 panel, Leukemia SR; conditions: Homo sapiens, read-out: Tumor cell inhibitory activity (NCI) GI50
A549/ATCC = experiment: NCI 60 panel, NSCLC A549/ATCC; conditions: Homo sapiens, read-out: Tumor cell inhibitory activity (NCI) GI50
EKVX = experiment: NCI 60 panel, NSCLC EKVX; conditions: Homo sapiens, read-out: Tumor cell inhibitory activity (NCI) GI50
HOP-62 = experiment: NCI 60 panel, NSCLC HOP-62; conditions: Homo sapiens, read-out: Tumor cell inhibitory activity (NCI) GI50
HOP-92 = experiment: NCI 60 panel, NSCLC HOP-92; conditions: Homo sapiens, read-out: Tumor cell inhibitory activity (NCI) GI50
NCI-H226 = experiment: NCI 60 panel, NSCLC NCI-H226; conditions: Homo sapiens, read-out: Tumor cell inhibitory activity (NCI) GI50
NCI-H23 = experiment: NCI 60 panel, NSCLC NCI-H23; conditions: Homo sapiens, read-out: Tumor cell inhibitory activity (NCI) GI50
NCI-H322M = experiment: NCI 60 panel, NSCLC NCI-H322M; conditions: Homo sapiens, read-out: Tumor cell inhibitory activity (NCI) GI50
NCI-H460 = experiment: NCI 60 panel, NSCLC NCI-H460; conditions: Homo sapiens, read-out: Tumor cell inhibitory activity (NCI) GI50
NCI-H522 = experiment: NCI 60 panel, NSCLC NCI-H522; conditions: Homo sapiens, read-out: Tumor cell inhibitory activity (NCI) GI50
COLO 205 = experiment: NCI 60 panel, Colon Cancer COLO 205; conditions: Homo sapiens, read-out: Tumor cell inhibitory activity (NCI) GI50
HCC-2998 = experiment: NCI 60 panel, Colon Cancer HCC-2998; conditions: Homo sapiens, read-out: Tumor cell inhibitory activity (NCI) GI50
HCT-116 = experiment: NCI 60 panel, Colon Cancer HCT-116; conditions: Homo sapiens, read-out: Tumor cell inhibitory activity (NCI) GI50
HCT-15 = experiment: NCI 60 panel, Colon Cancer HCT-15; conditions: Homo sapiens, read-out: Tumor cell inhibitory activity (NCI) GI50
KM12 = experiment: NCI 60 panel, Colon Cancer KM12; conditions: Homo sapiens, read-out: Tumor cell inhibitory activity (NCI) GI50
SW-620 = experiment: NCI 60 panel, Colon Cancer SW-620; conditions: Homo sapiens, read-out: Tumor cell inhibitory activity (NCI) GI50
SF-268 = experiment: NCI 60 panel, CNS Cancer SF-268; conditions: Homo sapiens, read-out: Tumor cell inhibitory activity (NCI) GI50
SF-295 = experiment: NCI 60 panel, CNS Cancer SF-295; conditions: Homo sapiens, read-out: Tumor cell inhibitory activity (NCI) GI50
SF-539 = experiment: NCI 60 panel, CNS Cancer SF-539; conditions: Homo sapiens, read-out: Tumor cell inhibitory activity (NCI) GI50
SNB-19 = experiment: NCI 60 panel, CNS Cancer SNB-19; conditions: Homo sapiens, read-out: Tumor cell inhibitory activity (NCI) GI50
SNB-75 = experiment: NCI 60 panel, CNS Cancer SNB-75; conditions: Homo sapiens, read-out: Tumor cell inhibitory activity (NCI) GI50
U251 = experiment: NCI 60 panel, CNS Cancer U251; conditions: Homo sapiens, U-251, read-out: Tumor cell inhibitory activity (NCI) GI50
LOX IMVI = experiment: NCI 60 panel, Melanoma LOX IMVI; conditions: Homo sapiens, read-out: Tumor cell inhibitory activity (NCI) GI50
MALME-3M = experiment: NCI 60 panel, Melanoma MALME-3M; conditions: Homo sapiens, read-out: Tumor cell inhibitory activity (NCI) GI50
M14 = experiment: NCI 60 panel, Melanoma M14; conditions: Homo sapiens, read-out: Tumor cell inhibitory activity (NCI) GI50
MDA-MB-435 = experiment: NCI 60 panel, Melanoma MDA-MB-435; conditions: Homo sapiens, read-out: Tumor cell inhibitory activity (NCI) GI50
SK-MEL-28 = experiment: NCI 60 panel, Melanoma SK-MEL-28; conditions: Homo sapiens, read-out: Tumor cell inhibitory activity (NCI) GI50
SK-MEL-5 = experiment: NCI 60 panel, Melanoma SK-MEL-5; conditions: Homo sapiens, read-out: Tumor cell inhibitory activity (NCI) GI50
UACC-257 = experiment: NCI 60 panel, Melanoma UACC-257; conditions: Homo sapiens, read-out: Tumor cell inhibitory activity (NCI) GI50
UACC-62 = experiment: NCI 60 panel, Melanoma UACC-62; conditions: Homo sapiens, read-out: Tumor cell inhibitory activity (NCI) GI50
IGROVI = experiment: NCI 60 panel, Ovarian cancer IGROVI; conditions: read-out: Tumor cell inhibitory activity (NCI) GI50
OVCAR-3 = experiment: NCI 60 panel, Ovarian cancer OVCAR-3; conditions: Homo sapiens, read-out: Tumor cell inhibitory activity (NCI) GI50
OVCAR-4 = experiment: NCI 60 panel, Ovarian cancer OVCAR-4; conditions: Homo sapiens, read-out: Tumor cell inhibitory activity (NCI) GI50
OVCAR-5 = experiment: NCI 60 panel, Ovarian cancer OVCAR-5; conditions: Homo sapiens, read-out: Tumor cell inhibitory activity (NCI) GI50
OVCAR-8 = experiment: NCI 60 panel, Ovarian cancer OVCAR-8; conditions: Homo sapiens, read-out: Tumor cell inhibitory activity (NCI) GI50
NCI/ADR-RES = experiment: NCI 60 panel, Ovarian cancer NCI/ADR-RES; conditions: Homo sapiens, read-out: Tumor cell inhibitory activity (NCI) GI50
SK-OV-3 = experiment: NCI 60 panel, Ovarian cancer SK-OV-3; conditions: Homo sapiens, read-out: Tumor cell inhibitory activity (NCI) GI50
786-0 = experiment: NCI 60 panel, Renal Cancer 786-0; conditions: Homo sapiens, read-out: Tumor cell inhibitory activity (NCI) GI50
A498 = experiment: NCI 60 panel, Renal Cancer A498; conditions: Homo sapiens, read-out: Tumor cell inhibitory activity (NCI) GI50
ACHN = experiment: NCI 60 panel, Renal Cancer ACHN; conditions: Homo sapiens, read-out: Tumor cell inhibitory activity (NCI) GI50
CAKI-1 = experiment: NCI 60 panel, Renal Cancer CAKI-1; conditions: Homo sapiens, read-out: Tumor cell inhibitory activity (NCI) GI50
RXF 393 = experiment: NCI 60 panel, Renal Cancer RXF 393; conditions: Homo sapiens, read-out: Tumor cell inhibitory activity (NCI) GI50
SN12C = experiment: NCI 60 panel, Renal Cancer SN12C; conditions: Homo sapiens, read-out: Tumor cell inhibitory activity (NCI) GI50
TK10 = experiment: NCI 60 panel, Renal Cancer TK10; conditions: Homo sapiens, TK-10, read-out: Tumor cell inhibitory activity (NCI) GI50
UO-31 = experiment: NCI 60 panel, Renal Cancer UO-31; conditions: Homo sapiens, read-out: Tumor cell inhibitory activity (NCI) GI50
DU-145 = experiment: NCI 60 panel, Prostate Cancer DU-145; conditions: Homo sapiens, read-out: Tumor cell inhibitory activity (NCI) GI50
MCF7 = experiment: NCI 60 panel, Breast Cancer MCF7; conditions: Homo sapiens, read-out: Tumor cell inhibitory activity (NCI) GI50
MDA-MB-231/ATCC = experiment: NCI 60 panel, Breast Cancer MDA-MB-231/ATCC; conditions: Homo sapiens, read-out: Tumor cell inhibitory activity (NCI) GI50
HS 578T = experiment: NCI 60 panel, Breast Cancer HS 578T; conditions: Homo sapiens, read-out: Tumor cell inhibitory activity (NCI) GI50
BT-549 = experiment: NCI 60 panel, Breast Cancer BT-549; conditions: Homo sapiens, read-out: Tumor cell inhibitory activity (NCI) GI50
T-47D = experiment: NCI 60 panel, Breast Cancer T-47D; conditions: Homo sapiens, T47D, read-out: Tumor cell inhibitory activity (NCI) GI50
MDA-MB-468 = experiment: NCI 60 panel, Breast Cancer MDA-MB-468; conditions: Homo sapiens, read-out: Tumor cell inhibitory activity (NCI) GI50

PDGFRβ, sequence (P09619 33-1106, species assumed): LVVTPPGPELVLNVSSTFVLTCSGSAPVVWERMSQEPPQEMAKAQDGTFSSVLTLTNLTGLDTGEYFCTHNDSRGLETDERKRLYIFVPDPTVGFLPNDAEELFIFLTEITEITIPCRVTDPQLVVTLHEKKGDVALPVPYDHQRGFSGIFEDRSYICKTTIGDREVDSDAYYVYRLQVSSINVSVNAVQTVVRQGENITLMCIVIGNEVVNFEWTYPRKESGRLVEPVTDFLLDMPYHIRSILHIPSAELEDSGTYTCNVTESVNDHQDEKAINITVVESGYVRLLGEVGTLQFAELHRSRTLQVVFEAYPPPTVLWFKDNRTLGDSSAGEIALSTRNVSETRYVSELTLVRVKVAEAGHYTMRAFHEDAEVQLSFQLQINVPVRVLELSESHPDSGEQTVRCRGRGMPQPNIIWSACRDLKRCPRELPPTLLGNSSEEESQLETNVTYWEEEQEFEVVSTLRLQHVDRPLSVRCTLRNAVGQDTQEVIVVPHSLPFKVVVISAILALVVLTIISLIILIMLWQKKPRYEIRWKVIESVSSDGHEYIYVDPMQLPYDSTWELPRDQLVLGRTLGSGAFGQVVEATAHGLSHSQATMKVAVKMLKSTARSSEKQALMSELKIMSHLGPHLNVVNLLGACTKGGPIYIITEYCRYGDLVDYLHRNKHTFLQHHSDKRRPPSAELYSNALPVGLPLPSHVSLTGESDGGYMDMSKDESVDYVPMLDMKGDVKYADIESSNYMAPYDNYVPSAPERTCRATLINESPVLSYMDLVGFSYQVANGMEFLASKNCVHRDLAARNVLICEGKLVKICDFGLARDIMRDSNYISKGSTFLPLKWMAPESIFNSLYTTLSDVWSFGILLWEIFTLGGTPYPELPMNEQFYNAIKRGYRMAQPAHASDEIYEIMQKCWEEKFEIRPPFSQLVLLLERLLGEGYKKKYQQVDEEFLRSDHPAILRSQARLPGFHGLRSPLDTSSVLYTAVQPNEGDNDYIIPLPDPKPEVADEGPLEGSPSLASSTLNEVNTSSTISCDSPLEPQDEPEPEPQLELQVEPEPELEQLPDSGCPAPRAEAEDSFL
EGFR, sequence (P00533 25-1210, species assumed): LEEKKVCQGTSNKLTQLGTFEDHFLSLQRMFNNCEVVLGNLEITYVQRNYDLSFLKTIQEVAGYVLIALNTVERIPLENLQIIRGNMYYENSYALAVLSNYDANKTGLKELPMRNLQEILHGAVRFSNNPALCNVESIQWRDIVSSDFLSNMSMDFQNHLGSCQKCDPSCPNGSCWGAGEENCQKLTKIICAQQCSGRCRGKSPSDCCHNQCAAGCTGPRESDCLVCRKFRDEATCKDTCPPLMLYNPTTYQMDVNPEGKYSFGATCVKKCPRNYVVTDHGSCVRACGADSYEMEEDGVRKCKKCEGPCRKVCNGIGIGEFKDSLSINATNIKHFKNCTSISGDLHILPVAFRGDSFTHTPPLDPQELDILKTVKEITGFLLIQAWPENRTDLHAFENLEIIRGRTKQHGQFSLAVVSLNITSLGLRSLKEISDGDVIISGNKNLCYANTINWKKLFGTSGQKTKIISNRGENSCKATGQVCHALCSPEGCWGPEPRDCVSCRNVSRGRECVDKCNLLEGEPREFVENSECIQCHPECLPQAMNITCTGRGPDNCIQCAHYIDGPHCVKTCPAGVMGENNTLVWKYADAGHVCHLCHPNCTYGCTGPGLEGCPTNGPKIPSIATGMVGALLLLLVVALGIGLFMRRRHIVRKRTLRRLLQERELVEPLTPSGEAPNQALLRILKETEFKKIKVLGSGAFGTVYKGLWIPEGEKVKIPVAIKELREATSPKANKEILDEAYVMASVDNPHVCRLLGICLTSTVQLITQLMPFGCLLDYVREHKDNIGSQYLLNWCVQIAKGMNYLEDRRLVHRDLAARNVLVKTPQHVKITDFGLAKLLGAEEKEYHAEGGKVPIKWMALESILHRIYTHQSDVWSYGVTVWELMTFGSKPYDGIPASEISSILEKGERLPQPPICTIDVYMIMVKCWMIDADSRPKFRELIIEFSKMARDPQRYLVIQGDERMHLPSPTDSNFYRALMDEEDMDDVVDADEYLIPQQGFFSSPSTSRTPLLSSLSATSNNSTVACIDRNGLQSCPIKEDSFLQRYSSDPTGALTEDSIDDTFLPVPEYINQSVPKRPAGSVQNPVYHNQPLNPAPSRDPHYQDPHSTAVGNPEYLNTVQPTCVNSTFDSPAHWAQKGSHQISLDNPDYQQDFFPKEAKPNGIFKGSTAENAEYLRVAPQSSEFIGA

SMILES: COc1ccc2c(c1)CCCN2c1nc(C)nc2c(Cc3ccccc3)c[nH]c12 [Compound 2, 1-(7-Benzyl-2-methyl-5H-pyrrolo[3,2-d]pyrimidin-4-yl)-6-methoxy-1,2,3,4-tetrahydroquinoline]
- IC50 (PDGFRβ): 90.3 nM
- IC50 (EGFR): 33.6 nM
- IC50 (wild type HeLa cells): 250 nM
- GI50 across the NCI 60 tumor cell line panel, in words [1]: 2- to 3-digit nanomolar
- GI50 (CCRF-CEM): 226 nM
- GI50 (HL-60(TB)): 222 nM
- GI50 (K-562): 111 nM
- GI50 (MOLT-4): 345 nM
- GI50 (RPMI-8226): 266 nM
- GI50 (SR): 922 nM
- GI50 (A549/ATCC): 406 nM
- GI50 (EKVX): 463 nM
- GI50 (HOP-62): 379 nM
- GI50 (HOP-92): 189 nM
- GI50 (NCI-H226): 136 nM
- GI50 (NCI-H23): 320 nM
- GI50 (NCI-H322M): 362 nM
- GI50 (NCI-H460): 337 nM
- GI50 (NCI-H522): 316 nM
- GI50 (COLO 205): 232 nM
- GI50 (HCC-2998): 318 nM
- GI50 (HCT-116): 368 nM
- GI50 (HCT-15): 366 nM
- GI50 (KM12): 366 nM
- GI50 (SW-620): 370 nM
- GI50 (SF-268): 723 nM
- GI50 (SF-295): 192 nM
- GI50 (SF-539): 260 nM
- GI50 (SNB-19): 549 nM
- GI50 (SNB-75): 182 nM
- GI50 (U251): 316 nM
- GI50 (LOX IMVI): 521 nM
- GI50 (MALME-3M): 330 nM
- GI50 (M14): 252 nM
- GI50 (MDA-MB-435): 341 nM
- GI50 (SK-MEL-28): 368 nM
- GI50 (SK-MEL-5): 325 nM
- GI50 (UACC-257): 108 nM
- GI50 (UACC-62): 659 nM
- GI50 (IGROVI): 440 nM
- GI50 (OVCAR-3): 285 nM
- GI50 (OVCAR-4): 468 nM
- GI50 (OVCAR-5): 543 nM
- GI50 (OVCAR-8): 487 nM
- GI50 (NCI/ADR-RES): 265 nM
- GI50 (SK-OV-3): 423 nM
- GI50 (786-0): 934 nM
- GI50 (A498): 197 nM
- GI50 (ACHN): 830 nM
- GI50 (CAKI-1): 341 nM
- GI50 (RXF 393): 212 nM
- GI50 (SN12C): 618 nM
- GI50 (TK10): 123 nM
- GI50 (UO-31): 390 nM
- GI50 (DU-145): 383 nM
- GI50 (MCF7): 248 nM
- GI50 (MDA-MB-231/ATCC): 641 nM
- GI50 (HS 578T): 582 nM
- GI50 (BT-549): 755 nM
- GI50 (T-47D): 128 nM
- GI50 (MDA-MB-468): 153 nM
